# Measurements reported in ChEMBL document CHEMBL1201862, “PubChem BioAssay data set” (2004).
#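 Dose response: 5 concentrations. Exposure: 48 h. Format: 96-well plates. Endpoint: linear interpolation; highest concentration if not reached. GI50 = concentration required for 50% inhibition of growth.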 Active and inactive are the calls of the source. No stated cut-off is given here; in the data, active = GI50 up to about 1.1 µM and inactive = higher.
# Legend:
# Assay in all cases: growth of human tumour cells (NCI), 48 h
# 786-0 = test system: 786-0
# A498 = test system: A498
# A549 = test system: A549
# ACHN = test system: ACHN
# BT-549 = test system: BT-549
# CAKI-1 = test system: CAKI-1
# CCRF-CEM = test system: CCRF-CEM
# COLO 205 = test system: COLO 205
# DU-145 = test system: DU-145
# EKVX = test system: EKVX
# HCC 2998 = test system: HCC 2998
# HCT-116 = test system: HCT-116
# HCT-15 = test system: HCT-15
# HOP-62 = test system: HOP-62
# HOP-92 = test system: HOP-92
# HT-29 = test system: HT-29
# Hs-578T = test system: Hs-578T
# IGROV-1 = test system: IGROV-1
# K562 = test system: K562
# KM12 = test system: KM12
# LOX IMVI = test system: LOX IMVI
# M14 = test system: M14
# MCF7 = test system: MCF7
# MDA-MB-231 = test system: MDA-MB-231
# MDA-MB-435 = test system: MDA-MB-435
# MDA-N = test system: MDA-N
# MOLT-4 = test system: MOLT-4
# Malme-3M = test system: Malme-3M
# NCI-H226 = test system: NCI-H226
# NCI-H23 = test system: NCI-H23
# NCI-H460 = test system: NCI-H460
# NCI-H522 = test system: NCI-H522
# NCI/ADR-RES = test system: NCI/ADR-RES
# OVCAR-3 = test system: OVCAR-3
# OVCAR-4 = test system: OVCAR-4
# OVCAR-5 = test system: OVCAR-5
# OVCAR-8 = test system: OVCAR-8
# PC-3 = test system: PC-3
# RPMI-8226 = test system: RPMI-8226
# RXF 393 = test system: RXF 393
# SF-268 = test system: SF-268
# SF-295 = test system: SF-295
# SK-MEL-28 = test system: SK-MEL-28
# SK-MEL-2 = test system: SK-MEL-2
# SK-MEL-5 = test system: SK-MEL-5
# SK-OV-3 = test system: SK-OV-3
# SNB-19 = test system: SNB-19
# SNB-75 = test system: SNB-75
# SW-620 = test system: SW-620
# TK-10 = test system: TK-10
# U-251 = test system: U-251
# UACC-257 = test system: UACC-257
# UACC-62 = test system: UACC-62
# UO-31 = test system: UO-31
# HL-60 = test system: HL-60
# SF-539 = test system: SF-539
# SN12C = test system: SN12C
# SR = test system: SR
# T47D = test system: T47D
smiles,measurement,setting,value
C[C@]12CC(c3ccccc3O1)C(C(=O)NC13CC4CC(CC(C4)C1)C3)C(=O)N2 (some centres not stated),GI50,786-0,18.3 µM (inactive)
same,GI50,A498,39.9 µM (inactive)
same,GI50,A549,21.1 µM (inactive)
same,GI50,ACHN,34.1 µM (inactive)
same,GI50,BT-549,28.1 µM (inactive)
same,GI50,CAKI-1,38.6 µM (inactive)
same,GI50,CCRF-CEM,20 µM (inactive)
same,GI50,COLO 205,15.6 µM (inactive)
same,GI50,DU-145,38.4 µM (inactive)
same,GI50,EKVX,0.249 µM (active)
same,GI50,HCC 2998,29 µM (inactive)
same,GI50,HCT-116,18.4 µM (inactive)
same,GI50,HCT-15,25.9 µM
same,GI50,HOP-62,44.3 µM (inactive)
same,GI50,HOP-92,20.7 µM (inactive)
same,GI50,HT-29,16.1 µM (inactive)
same,GI50,Hs-578T,55.7 µM (inactive)
same,GI50,IGROV-1,31.4 µM (inactive)
same,GI50,K562,14 µM (inactive)
same,GI50,KM12,35.5 µM (inactive)
same,GI50,LOX IMVI,23.4 µM (inactive)
same,GI50,M14,15.6 µM (inactive)
same,GI50,MCF7,39.5 µM (inactive)
same,GI50,MDA-MB-231,34.4 µM (inactive)
same,GI50,MDA-MB-435,26.2 µM (inactive)
same,GI50,MDA-N,18.1 µM (inactive)
same,GI50,MOLT-4,12 µM (inactive)
same,GI50,Malme-3M,33 µM (inactive)
same,GI50,NCI-H226,23.6 µM (inactive)
same,GI50,NCI-H23,23.7 µM (inactive)
same,GI50,NCI-H460,35.4 µM (inactive)
same,GI50,NCI-H522,39 µM (inactive)
same,GI50,NCI/ADR-RES,20.3 µM (inactive)
same,GI50,OVCAR-3,44.9 µM (inactive)
same,GI50,OVCAR-4,52.6 µM (inactive)
same,GI50,OVCAR-5,19.5 µM (inactive)
same,GI50,OVCAR-8,26.6 µM (inactive)
same,GI50,PC-3,32.1 µM (inactive)
same,GI50,RPMI-8226,16 µM (inactive)
same,GI50,RXF 393,25.6 µM (inactive)
same,GI50,SF-268,32.1 µM (inactive)
same,GI50,SF-295,44.8 µM (inactive)
same,GI50,SK-MEL-28,28.3 µM (inactive)
same,GI50,SK-MEL-2,19.9 µM (inactive)
same,GI50,SK-MEL-5,17.9 µM (inactive)
same,GI50,SK-OV-3,64.9 µM (inactive)
same,GI50,SNB-19,23.4 µM (inactive)
same,GI50,SNB-75,27.5 µM (inactive)
same,GI50,SW-620,46.3 µM (inactive)
same,GI50,TK-10,70.1 µM (inactive)
same,GI50,U-251,36.6 µM (inactive)
same,GI50,UACC-257,35.7 µM (inactive)
same,GI50,UACC-62,46.8 µM (inactive)
same,GI50,UO-31,20 µM (inactive)
CSc1ccc(/C=C2\N=C(c3ccccc3)N(NC(=O)c3c(Cl)c(Cl)c(Cl)c(Cl)c3-c3nc4ccccc4[nH]3)C2=O)cc1,GI50,786-0,36 µM (inactive)
same,GI50,A498,30.8 µM (inactive)
same,GI50,A549,30.1 µM (inactive)
same,GI50,ACHN,28.8 µM (inactive)
same,GI50,BT-549,25.3 µM (inactive)
same,GI50,CAKI-1,21.7 µM (inactive)
same,GI50,CCRF-CEM,25.9 µM (inactive)
same,GI50,COLO 205,22.4 µM (inactive)
same,GI50,DU-145,28.4 µM (inactive)
same,GI50,EKVX,25.5 µM (inactive)
same,GI50,HCC 2998,9.59 µM (inactive)
same,GI50,HCT-116,25.2 µM (inactive)
same,GI50,HCT-15,15.1 µM
same,GI50,HL-60,23.7 µM (inactive)
same,GI50,HOP-62,4.11 µM (inactive)
same,GI50,HOP-92,17.5 µM (inactive)
same,GI50,HT-29,36.2 µM (inactive)
same,GI50,Hs-578T,34.8 µM (inactive)
same,GI50,IGROV-1,1.79 µM (inactive)
same,GI50,K562,5.5 µM (inactive)
same,GI50,KM12,6.84 µM (inactive)
same,GI50,LOX IMVI,30.9 µM (inactive)
same,GI50,M14,29.6 µM (inactive)
same,GI50,MCF7,19.5 µM (inactive)
same,GI50,MDA-MB-435,3.27 µM (inactive)
same,GI50,MDA-N,6.87 µM (inactive)
same,GI50,MOLT-4,20.7 µM (inactive)
same,GI50,Malme-3M,30.1 µM (inactive)
same,GI50,NCI-H226,14.2 µM (inactive)
same,GI50,NCI-H23,24.7 µM (inactive)
same,GI50,NCI-H460,4.43 µM (inactive)
same,GI50,NCI-H522,28.4 µM (inactive)
same,GI50,NCI/ADR-RES,25.1 µM (inactive)
same,GI50,OVCAR-3,26.6 µM (inactive)
same,GI50,OVCAR-5,81.7 µM (inactive)
same,GI50,OVCAR-8,37.8 µM (inactive)
same,GI50,PC-3,36.6 µM (inactive)
same,GI50,SF-268,36.9 µM (inactive)
same,GI50,SF-295,4.49 µM (inactive)
same,GI50,SF-539,33 µM (inactive)
same,GI50,SK-MEL-28,30.8 µM (inactive)
same,GI50,SK-MEL-2,34.9 µM (inactive)
same,GI50,SK-MEL-5,21.7 µM (inactive)
same,GI50,SK-OV-3,5.48 µM (inactive)
same,GI50,SN12C,31 µM (inactive)
same,GI50,SNB-19,48.5 µM (inactive)
same,GI50,SNB-75,8.3 µM (inactive)
same,GI50,SR,2.22 µM (inactive)
same,GI50,SW-620,29.9 µM (inactive)
same,GI50,T47D,2.03 µM (inactive)
same,GI50,UACC-257,28.4 µM (inactive)
same,GI50,UACC-62,19.2 µM (inactive)
same,GI50,UO-31,27.4 µM (inactive)
